Reference: ChEMBL document CHEMBL4477222, “Discovery of Novel Thiophene-Based, Thumb Pocket 2 Allosteric Inhibitors of the Hepatitis C NS5B Polymerase with Improved Potency and Physicochemical Profiles” (J Med Chem, 2016)
Converted amounts (≈) assume the structure as drawn. The source made the active and inactive calls. The calls are words filed in the database; no cut-off is given here.

Experiments:
[1] = Cytotoxicity against human Huh7ET cells assessed as reduction in cell viability after 4 days; type: cell-based
[2] = target: Nonstructural protein 5A (Hepatitis C virus, UniProt Q5L478); test: Inhibition of HCV genotype 2a NS5A; set-up: species or system Hepatitis C virus subtype 2a
[3] = target: RNA-directed RNA polymerase (Hepacivirus hominis, UniProt O39930, L419I); test: Inhibition of HCV genotype 1a NS5B L419I mutant; set-up: species or system Hepatitis C virus subtype 1a
[4] = target: RNA-directed RNA polymerase (Hepacivirus hominis, UniProt O39930, M423T); test: Inhibition of HCV genotype 1a NS5B M423T mutant; set-up: species or system Hepatitis C virus subtype 1a
[5] = target: RNA-directed RNA polymerase (Hepacivirus hominis, UniProt O39930, M423V); test: Inhibition of HCV genotype 1a NS5B M423V mutant; set-up: species or system Hepatitis C virus subtype 1a
[6] = Metabolic stability in rat hepatocytes assessed as compound remaining at 10 uM after 2 hrs; type: ADME, cell-based, Hepatocyte; settings: read-out: Stability
[7] = Metabolic stability in rat liver microsomal S9 fraction assessed as compound remaining at 1 uM after 2 hrs in presence of NADPH; type: ADME, subcellular; settings: read-out: Stability
[8] = Metabolic stability in rat liver microsomal S9 fraction assessed as compound remaining at 1 uM after 2 hrs in presence of NADPH/UDPGA; type: ADME, subcellular; settings: read-out: Stability
[9] = Metabolic stability in dog hepatocytes assessed as compound remaining at 10 uM after 2 hrs; type: ADME, cell-based, Canis lupus familiaris, Hepatocyte; settings: read-out: Stability
[10] = Metabolic stability in dog liver microsomal S9 fraction assessed as compound remaining at 1 uM after 2 hrs in presence of NADPH; type: ADME, subcellular, Canis lupus familiaris; settings: read-out: Stability
[11] = Metabolic stability in monkey hepatocytes assessed as compound remaining at 10 uM after 2 hrs; type: ADME, cell-based, Macaca mulatta, Hepatocyte; settings: rhesus monkey, read-out: Stability
[12] = Metabolic stability in dog liver microsomal S9 fraction assessed as compound remaining at 1 uM after 2 hrs in presence of NADPH/UDPGA; type: ADME, subcellular, Canis lupus familiaris; settings: read-out: Stability
[13] = Protein binding in dog liver at 1 uM; type: ADME, tissue-based, Canis lupus familiaris; settings: read-out: PB (converted)
[14] = Protein binding in dog plasma at 1 uM; type: ADME, cell-free, Canis lupus familiaris; settings: read-out: PPB (converted)
[15] = Metabolic stability in monkey liver microsomal S9 fraction assessed as compound remaining at 1 uM after 2 hrs in presence of NADPH; type: ADME, subcellular, Macaca mulatta; settings: rhesus monkey, read-out: Stability
[16] = Protein binding in monkey plasma at 1 uM; type: ADME, cell-free, Macaca mulatta; settings: rhesus monkey, read-out: PPB (converted)
[17] = Drug excretion in rat feces; type: ADME; settings: in vivo
[18] = target: Cytochrome P450 2E1 (Homo sapiens, UniProt P05181); test: Inhibition of CYP2E1 (unknown origin); type: ADME
Cytochrome P450 2E1, sequence (P05181 whole entry): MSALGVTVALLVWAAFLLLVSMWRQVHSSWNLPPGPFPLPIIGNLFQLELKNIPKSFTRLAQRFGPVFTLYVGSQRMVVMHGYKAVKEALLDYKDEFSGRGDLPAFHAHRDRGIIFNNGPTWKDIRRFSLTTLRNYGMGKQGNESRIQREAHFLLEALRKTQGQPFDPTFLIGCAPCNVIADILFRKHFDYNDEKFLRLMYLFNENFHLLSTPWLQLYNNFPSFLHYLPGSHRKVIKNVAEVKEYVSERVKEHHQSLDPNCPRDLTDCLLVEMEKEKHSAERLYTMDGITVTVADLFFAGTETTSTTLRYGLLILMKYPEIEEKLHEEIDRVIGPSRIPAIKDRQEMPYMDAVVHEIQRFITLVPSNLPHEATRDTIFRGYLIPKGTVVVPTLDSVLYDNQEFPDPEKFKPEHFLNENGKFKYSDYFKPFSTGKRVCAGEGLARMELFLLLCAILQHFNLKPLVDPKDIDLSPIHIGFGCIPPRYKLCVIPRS

[19] = test system: Hepatocyte; test: Change in CYP3A4 mRNA levels in hepatocytes (unknown origin); type: ADME, cell-based
[20] = Permeability from apical to basolateral side in human Caco2 cells; type: ADME, cell-based; settings: Caco-2, read-out: permeability
[21] = Efflux ratio of permeability from basolateral to apical side over apical to basolateral side in human Caco2 cells; type: ADME, cell-based; settings: Caco-2
[22] = AUC (0 to infinity) in Sprague-Dawley rat at 1 mg/kg, iv through bolus administration; type: ADME, organism-based; set-up: dose 1 mg/kg, route intravenous, time infinity; settings: in vivo
[23] = Half life in Sprague-Dawley rat at 1 mg/kg, iv through bolus administration; type: ADME, organism-based; settings: in vivo
[24] = Volume of distribution at steady state in Sprague-Dawley rat at 1 mg/kg, iv through bolus administration; type: ADME, organism-based; settings: in vivo, read-out: Vdss
[25] = Oral bioavailability in Sprague-Dawley rat at 3 mg/kg; type: ADME, organism-based; settings: in vivo
[26] = Ratio of drug level in liver to lungs in Sprague-Dawley rat at 10 mg/kg, po; type: ADME, organism-based, Liver/Lung; settings: in vivo
[27] = Drug uptake in Sprague-Dawley rat liver at 10 mg/kg, po administered as single dose; type: ADME, organism-based; settings: in vivo
[28] = Drug uptake in Sprague-Dawley rat plasma at 10 mg/kg, po administered as single dose; type: ADME, organism-based; settings: in vivo
[29] = Oral bioavailability in dog at 3 mg/kg; type: ADME, organism-based, Canis lupus familiaris; settings: in vivo
[30] = Volume of distribution in steady state in Fischer 344 rat at 1 mg/kg, iv through bolus administration; type: ADME, organism-based; settings: in vivo, read-out: Vdss
[31] = AUC (0 to infinity) in Fischer 344 rat at 3 mg/kg, po; type: ADME, organism-based; set-up: dose 3 mg/kg, route oral, time infinity; settings: in vivo
[32] = Cmax in Fischer 344 rat at 3 mg/kg, po; type: ADME, organism-based; set-up: dose 3 mg/kg, route oral; settings: in vivo
[33] = Oral bioavailability in Fischer 344 rat at 3 mg/kg; type: ADME, organism-based; settings: in vivo
[34] = Half life in Fischer 344 rat at 3 mg/kg; type: ADME, organism-based; settings: in vivo
[35] = AUC (0 to infinity) in dog at 1 mg/kg, iv through bolus administration; type: ADME, organism-based, Canis lupus familiaris; set-up: dose 1 mg/kg, route intravenous, time infinity; settings: in vivo
[36] = Clearance in dog at 1 mg/kg, iv through bolus administration; type: ADME, organism-based, Canis lupus familiaris; settings: in vivo
[37] = Cmax in dog at 3 mg/kg, po; type: ADME, organism-based, Canis lupus familiaris; set-up: dose 3 mg/kg, route oral; settings: in vivo
[38] = Clearance in monkey at 1 mg/kg, iv through bolus administration; type: ADME, organism-based, Macaca mulatta; settings: rhesus monkey, in vivo
[39] = Half life in monkey at 1 mg/kg, iv through bolus administration; type: ADME, organism-based, Macaca mulatta; settings: rhesus monkey, in vivo
[40] = Solubility of the compound in FaSSIF at pH 6.3; type: physicochemical
[41] = Solubility of the compound in FeSSIF at pH 5.2; type: physicochemical
[42] = Chemical stability of compound under long term storage in solution; type: physicochemical
[43] = test system: NS3 protease (Hepacivirus C), C1KIQ2 [V36M]; test: Inhibition of telaprevir-resistant HCV NS3 protease V36M mutant; settings: Hepacivirus hominis
[44] = test system: NS3 protease (Hepacivirus C), C1KIQ2 [T54A]; test: Inhibition of telaprevir-resistant HCV NS3 protease T54A mutant; settings: Hepacivirus hominis
[45] = test system: NS3 protease (Hepatitis C virus subtype 1b), Q0ZMF1 [A156S]; test: Inhibition of telaprevir-resistant HCV NS3 protease A156S mutant; settings: Hepacivirus hominis
[46] = test system: NS3 protease (Hepacivirus C), C1KIQ2 [A156T]; test: Inhibition of telaprevir-resistant HCV NS3 protease A156T mutant; settings: Hepacivirus hominis
[47] = test system: NS3 (Hepatitis C virus), A3EZJ3 [R155K,V36M]; test: Inhibition of telaprevir-resistant HCV NS3 protease V36M/R155K double mutant; settings: Hepacivirus hominis
[48] = test system: Nonstructural protein 5A (Hepatitis C virus), Q5L478 [UNDEFINED MUTATION]; test: Inhibition of BMS-790052-resistant HCV genotype 1a NS5A Q30H mutant; settings: Hepatitis C virus subtype 1a
[49] = test system: Nonstructural protein 5A (Hepatitis C virus), Q5L478 [UNDEFINED MUTATION]; test: Inhibition of BMS-790052-resistant HCV genotype 1a NS5A Q30R mutant; settings: Hepatitis C virus subtype 1a
[50] = test system: Nonstructural protein 5A (Hepatitis C virus), Q5L478 [UNDEFINED MUTATION]; test: Inhibition of BMS-790052-resistant HCV genotype 1a NS5A L31V mutant; settings: Hepatitis C virus subtype 1a
[51] = test system: Nonstructural protein 5A (Hepatitis C virus), Q5L478 [UNDEFINED MUTATION]; test: Inhibition of BMS-790052-resistant HCV genotype 1a NS5A P32L mutant; settings: Hepatitis C virus subtype 1a
[52] = test system: Nonstructural protein 5A (Hepatitis C virus), Q5L478 [UNDEFINED MUTATION]; test: Inhibition of BMS-790052-resistant HCV genotype 1a NS5A Y93N mutant; settings: Hepatitis C virus subtype 1a
[53] = test system: Nonstructural protein 5A (Hepatitis C virus), Q5L478 [UNDEFINED MUTATION]; test: Inhibition of BMS-790052-resistant HCV genotype 1a NS5A Y93H mutant; settings: Hepatitis C virus subtype 1a
[54] = test system: Nonstructural protein 5A (Hepatitis C virus), Q5L478 [UNDEFINED MUTATION]; test: Inhibition of BMS-790052-resistant HCV genotype 1b NS5A L31V mutant; settings: Hepatitis C virus subtype 1b
[55] = test system: MDCK; test: Ratio of permeability in MDCK cells expressing OATP1B1 to permeability in wild type MDCK cells; type: ADME, cell-based, Canis lupus familiaris; settings: dog

CC(C)(C)C#Cc1cc(N(CC(=O)N2CCOCC2)C(=O)[C@H]2CC[C@H](C)CC2)c(C(=O)O)s1
CC50 at 96 h [1]: > 20000 nM | EC50 [2]: 4800 nM | EC50 [3]: 400 nM | EC50 [4]: 280 nM | EC50 [5]: 120 nM | remaining at 2 h, 10 µM [6]: 100% | remaining at 2 h, 1 µM [7]: 99% | remaining at 2 h, 1 µM [8]: 79% | remaining at 2 h, 10 µM [9]: 70% | remaining at 2 h, 1 µM [10]: 82% | remaining at 2 h, 10 µM [11]: 30% | remaining at 2 h, 1 µM [12]: 82% | fraction unbound at 1 µM [13]: 0.14 | fraction unbound at 1 µM [14]: 0.025 | remaining at 2 h, 1 µM [15]: 19% | fraction unbound at 1 µM [16]: 0.023 | Drug excretion [17]: Metabolite_Detected | IC50 [18]: 14000 nM | Activity [19]: Non-Toxic | Papp A→B [20]: 0.7 ×10⁻⁶ cm/s | efflux ratio [21]: 14 | AUC [22]: 4270 ng·h/mL | half-life [23]: 2.35 h | Vd [24]: 1.55 L/kg | bioavailability [25]: 69% | Ratio [26]: 10 | Drug uptake [27]: Active | Drug uptake [28]: Active | bioavailability [29]: 57.3% | Vd [30]: 0.86 L/kg | AUC(0-inf) [31]: 310 ng·h/mL | Cmax [32]: 240 ng/mL | bioavailability [33]: 6.5% | half-life [34]: 2.1 h | AUC(0-inf) [35]: 1360 ng·h/mL | clearance [36]: 10.1 mL/min/kg | Cmax [37]: 1550 ng/mL | clearance [38]: 9.9 mL/min/kg | half-life [39]: 2.2 h | solubility [40]: 1700 µg/mL (≈ 3580 µM) | solubility [41]: 800 µg/mL (≈ 1690 µM) | Stability [42]: Stable | inhibition [43]: Active | inhibition [44]: Active | inhibition [45]: Active | inhibition [46]: Active | inhibition [47]: Active | inhibition [48]: Active | inhibition [49]: Active | inhibition [50]: Active | inhibition [51]: Active | inhibition [52]: Active | inhibition [53]: Active | inhibition [54]: Active | Ratio [55]: 3
